Experimental data from PMC4139342, “Pharmacokinetics-Pharmacodynamics Analysis of Bicyclic 4-Nitroimidazole Analogs in a Murine Model of Tuberculosis” (PLoS ONE, 2014).
In brackets after ≈: the same amount, converted by molar mass.

What was measured:
[1] = female, CD-1, mouse, in vivo, iv, 5 mg/kg
[2] = female, CD-1, mouse, in vivo, po, 25 mg/kg
in vivo [3] = conditions: female, CD-1, mouse, po, 25 mg/kg
physchem [4] = experiment: physchem
in vitro [5] = conditions: human, Caco-2
[6] = Cytotoxicity against THP1 macrophage cell lines; format: cell-based; conditions: human
in vivo [7] = conditions: female, CD-1, mouse, po, 25 mg/kg; remark: listed apart in the source
physchem [8] = conditions: pH 6.8, aqueous buffer, thermodynamic from solid
in vitro [9] = conditions: mouse, plasma
in vivo [10] = conditions: female, CD-1, mouse, iv, 5 mg/kg
[11] = In vivo lung PK after oral dosing; conditions: female, CD-1, mouse, 25 mg/kg
Mtb H37Rv = experiment: In vivo mouse efficacy, established murine TB model; parameters: species or system Balb/c mice; conditions: 100 mg/kg oral daily for 4 weeks
Method: In vivo mouse efficacy studies were determined after intranasal infection of Balb/c mice with 10^3 cfu Mtb H37Rv. Treatment was initiated 4 weeks after infection. Compounds were orally administered in CM-2 formulation for 4 weeks daily. Bacterial loads were determined at 2 and 4 weeks post treatment. Statistical analysis was done by a one-way analysis of variance, followed by a multiple comparison analysis of variance by a one-way Tukey test (GraphPad Prism, version 5.02, San Diago, California USA, www.graphpad.com). Differences were considered statistically significant at the 95% level of confidence.

[12] = test system: M. tuberculosis (Mtb) (H37Rv, ATCC 27294); experiment: microbe, parasite or virus in culture; format: cell-based; conditions: Mycobacterium tuberculosis
[13] = In vivo plasma PK after oral dosing in CM-2 formulation; conditions: female, CD-1, mouse, plasma, po, 25 mg/kg
[14] = In vivo plasma PK after intravenous dosing; conditions: female, CD-1, mouse, plasma, iv, 5 mg/kg, T1/2 (i.v), mice, i.v. dosing at 5 mg/kg

For `O=[N+]([O-])c1cn2c(n1)OC1(CC1)C(OCc1ccc(OC(F)(F)F)cc1)C2` (centres unmarked) [NI-302], the “i.v. CL” value [1] was 4.3 mL/min/kg, the “Lung AUC24” value [2] was 100.3 µg·h/g and the “Lung Cmax” value [2] was 9.7 µg/g. The Kp (in vivo [3]; Lung to Plasma ratio AUC24) was 0.7, the Kp (in vivo [3]; Lung to Plasma ratio Cmax) was 0.8 and the logP (physchem [4]) was 3.2. It also gave a Papp A→B (in vitro [5]) of 45.1 ×10⁻⁶ cm/s, a Papp B→A (in vitro [5]) of 18.7 ×10⁻⁶ cm/s and an efflux ratio (in vitro [5]) of 0.4. It also gave a CC50 [6] greater than 10 µg/mL, an AUC (in vivo [7]) of 144 µg·h/mL and a Cmax (in vivo [7]) of 12900 ng/mL. The bioavailability (in vivo [7]) was 100%, the solubility (physchem [8]) was 26 µg/mL (≈ 67.5 µM) and the “PAMPA %FA” value was 99%. For the same molecule, the “PAMPA Log Pe” value was “–3.6 cm/sec”, the fraction unbound (in vitro [9]) was 0.043 and the Vd (in vivo [10]) was 1.2 L/kg. The clearance (in vivo [10]; i.v. CL) was 5 mL/min/kg, the half-life [11] was 4.1 h and the “Mean log lung CFU ± SEM” value (Mtb H37Rv; 5 animals) was 4.45±0.22 log CFU. The “Efficacy compared with PA-824, in words” value (Mtb H37Rv; significance at P<0.05) was “comparable efficacy to PA-824”, the log reduction at 100 mg/kg (Mtb H37Rv; Mycobacterium tuberculosis, H37RV, po, 672 h, 5 animals, read-out: Mean log lung CFU reduction ± SEM compared to untreated controls) was 2.17 ± 0.22 and the MIC99 [12] was 0.03 µg/mL (≈ 0.0779 µM). It also gave a half-life [13] of 4.1 h and a half-life [14] of 3.7 h.
